From patent publication US20210221848A1, “POLYMYXIN DERIVATIVES AND THEIR USE IN COMBINATION THERAPY TOGETHER WITH DIFFERENT ANTIBIOTICS” (priority 2014, published 2021)

What was measured:
P. aeruginosa = details: sole activity, Table 6C
K. pneumoniae = details: sole activity, Table 6C
[1] = tested on: P. aeruginosa strains with elevated MICs to Polymyxin B; assay: MIC against strains with elevated MICs to Polymyxin B; format: cell-based, Pseudomonas aeruginosa; details: Table 6D; for MIC P. aeruginosa 065: strain 065, elevated MIC to Polymyxin B; for MIC P. aeruginosa 066: strain 066, elevated MIC to Polymyxin B; for MIC P. aeruginosa 067: strain 067, elevated MIC to Polymyxin B
In short: (§1)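 Direct colony suspension at 0.5 McFarland (from 18-24 h Mueller-Hinton agar) served as inoculum; duplicates, lower value kept if within 2-fold.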

[2] = tested on: K. pneumoniae strains with elevated MICs to Polymyxin B; assay: as above; format: cell-based, Klebsiella pneumoniae; details: Table 6D; for MIC K. pneumoniae 062: strain 062, elevated MIC to Polymyxin B; for MIC K. pneumoniae 063: strain 063, elevated MIC to Polymyxin B; for MIC K. pneumoniae 064: strain 064, elevated MIC to Polymyxin B; for MIC K. pneumoniae 655: strain 655, elevated MIC to Polymyxin B
In short: as §1

[3] = tested on: A. baumanii strains with elevated MICs to Polymyxin B; assay: as above; format: cell-based, Acinetobacter baumannii; details: Table 6D; for MIC A. baumannii 053: strain 053, elevated MIC to Polymyxin B; for MIC A. baumannii 056: strain 056, elevated MIC to Polymyxin B; for MIC A. baumannii 068: strain 068, elevated MIC to Polymyxin B; for MIC A. baumannii 070: strain 070, elevated MIC to Polymyxin B
In short: as §1

[4] = tested on: E. coli strains with elevated MICs to Polymyxin B; assay: as above; format: cell-based, Escherichia coli; details: Table 6D; for MIC E. coli 058: strain 058, elevated MIC to Polymyxin B; for MIC E. coli 059: strain 059, elevated MIC to Polymyxin B; for MIC E. coli 060: strain 060, elevated MIC to Polymyxin B; for MIC E. coli 061: strain 061, elevated MIC to Polymyxin B
In short: as §1

A. baumannii = details: sole activity, Table 6C
E. coli = details: sole activity, Table 6C

Substance	MIC, P. aeruginosa ATCC 27853 (P. aeruginosa) [micrograms/mL]	MIC, P. aeruginosa CCUG 59347 (P. aeruginosa) [micrograms/mL]	MIC, K. pneumoniae ATCC 4352 (K. pneumoniae) [micrograms/mL]	MIC P. aeruginosa 065 [1] [micrograms/mL]	MIC P. aeruginosa 066 [1] [micrograms/mL]	MIC P. aeruginosa 067 [1] [micrograms/mL]	MIC K. pneumoniae 062 [2] [micrograms/mL]	MIC K. pneumoniae 063 [2] [micrograms/mL]	MIC K. pneumoniae 064 [2] [micrograms/mL]	MIC K. pneumoniae 655 [2] [micrograms/mL]	MIC A. baumannii 053 [3] [micrograms/mL]	MIC A. baumannii 056 [3] [micrograms/mL]	MIC A. baumannii 068 [3] [micrograms/mL]	MIC A. baumannii 070 [3] [micrograms/mL]	MIC E. coli 058 [4] [micrograms/mL]	MIC E. coli 059 [4] [micrograms/mL]	MIC E. coli 060 [4] [micrograms/mL]	MIC E. coli 061 [4] [micrograms/mL]	MIC, A. baumannii ATCC BAA-747 (A. baumannii) [micrograms/mL]	MIC, A. baumannii NCTC 13424 (A. baumannii) [micrograms/mL]	further results
1-(2- trifluoromethylben- zyl)piperazine- 2-carbonyl L-Thr- L-Dap-polymyxin B heptapeptide [Example D71]	0.5	1	0.25	0.5	1	16	32	16	4	32	64	16	4	8	1	8	4	8	0.5	0.25	MIC, K. pneumoniae ATCC BAA-2146 (K. pneumoniae; K. pneumoniae ATCC BAA-2146): 0.5 micrograms/mL; MIC, E. coli ATCC 25922 (E. coli): 0.25 micrograms/mL; MIC, E. coli NCTC 13441 (E. coli; E. coli NCTC 13441): 0.25 micrograms/mL
trans-5- cyclohexyl- piperidine-3- carbonyl L-Thr-L- Dap-polymyxin E heptapeptide [Example D86]	0.25	0.5	0.03	0.5	0.25	32	1	8	1	4	16	50.25	1	2	0.5	1	1	4	0.03	0.06	MIC, E. coli ATCC 25922 (E. coli): 0.125 micrograms/mL
